Earlier results in patent US20070154567A1, “Use of mercury to treat cancer” (priority 2006, published 2007).

System: mammary and sarcoma tumor growth in seeded wounds
Settings: 0.2% w/v solution administered to the wound site, mice; cited from earlier work

SMILES: [Cl][Hg][Cl] [mercuric chloride]
- mammary and sarcoma tumor growth in seeded wounds: reduce
